# Paper PMC8230802, “The Effects of Food on Cannabidiol Bioaccessibility” (Molecules, 2021)
# Several values for one entry are separate records, joined by “and”; a condition that tells them apart may be missing. Equal entries are not always repeated. Where two headings read alike, the source gives them in different places.
# Columns and labels:
# [1] = with sesame oil; cited from earlier work
# [2] = set-up: method as in PMID 27648135; settings: rats; cited from earlier work
# lipase = assay: Lipase activity assay with pNPP substrate; format: biochemical
# Method: The lipase, pancreatin and bile were purchased from Sigma-Aldrich. The p-nitrophenyl palmitate (pNPP), a […] compound (N2752, Sigma-Aldrich), was used as a substrate for the lipase enzyme as previously described. Upon hydrolysis of palmitate from pNPP, the resulting product is 4-nitrophenol (4-NP), and can be measured spectrophotometrically at 410 nm.
# Final assay enzyme concentrations were 1:2 mg/mL lipase:pancreatin and 1:2:3 mg/mL lipase: pancreatin:bile using 96 well plates separately just as in the artificial digestion protocol. Controls consisted of phosphate buffer and lipase enzyme without substrate pNPP. Experimental wells contained substrate pNPP in phosphate buffer and the lipase enzyme. All experimental and control wells were performed in triplicate. Temperature was set at 37 °C and the spectrophotometer was set to collect kinetic data over 2 h for the lipase: pancreatin (1:2) experiment. Substrate concentrations were 0.1 mM and 1.0 mM and were made from the 10.0 mM stock solution of pNPP in isopropanol. 4-NP dilutions in phosphate buffer were used to make a standard curve ranging from 5–1000 µM.
# On a separate 96 well plate, the same procedure was followed for the lipase: pancreatin: bile salt (1:2:3) experiment. Control and experimental samples were the same as mentioned above for the 1:2 mg/mL lipase: pancreatin experiment. […] After an incubation period of 30 min at 37 °C, 25 µL of the reaction mixture (supernatant) was taken and immediately mixed with 1 mL of 0.1 N NaOH in a 1 mL cuvette to stop the reaction and dilute the sample. The liberated pNP was detected at 410 nm, and bile salt interference was corrected by using a blank without substrate for background subtraction. The reaction rates for this experiment were obtained from the slope of the absorbance versus the time curve by using an extinction coefficient for the p-nitrophenol (pNP) that was determined from the absorbance of pNP as a standard solution.
# [3] = Fasted state three-phase in vitro digestion of CBD; format: in vitro ADME; settings: for Micellarization efficiency: CBD in AQ / DG x 100; for Digestive stability: CBD in DG / raw material x 100
# Method: The three-step in vitro digestion employed to mimic the human digestive tract in this study consisted of an oral phase, a gastric phase, and an intestinal phase. The method used was modified slightly from a previously described protocol. For the fasted state digestion oral phase, 10 mg and 100 mg of CBD were added to 1 mL distilled water in a 50 mL pyrex glass centrifuge tube (DAIGGER Scientific, Hamilton, NJ, USA) and mixed with 1 mL oral fluid. The mixtures were vortexed for 30 s and immediately the gastric phase of digestion was started by adding pepsin into NaHCO3 and the pH was adjusted to 2.5. The mixtures were blanketed with nitrogen gas, wrapped in parafilm, and shaken in a 37 °C incubator for 1 h in the dark at 95 rpm. Meanwhile, the intestinal phase was prepared (Table S1) by mixing bile in NaHCO3 and sonicating it for 45 min. For the intestinal phase, the pancreatin-lipase (2 mL of 2:1 ratio) was mixed into the same solution as bile salt. The enzyme solution and the bile solution were added to the tube containing the gastric phase and the pH was adjusted to 6.5 using 1N NaOH. The digestion sample tubes were blanketed with nitrogen and shaken for another 2 h at 37 °C in the dark at 95 rpm. After completion of the intestinal phase, 4 mL of the resulting Digesta (DG) was transferred into conical tubes, diluted with acetonitrile DG: Acetonitrile 1:2 (v/v), blanketed with nitrogen, and kept at −80 °C for analysis by UPLC-MS. The remaining volumes of the DG samples were centrifuged at 10,000× g at 4 °C for 60 min (Beckman L7-65 Ultracentrifuge, Beckman Instruments, Palo Alto, CA, USA). After centrifugation, the aqueous supernatant (AQ) containing the micellar fractions were filtered through the 0.22 µm pore (VWR, USA), diluted with acetonitrile AQ: Acetonitrile 1:2 (v/v) and stored at −80 °C for further analysis. The insoluble pellet was dissolved into the acetonitrile 1:2 (v/v) for further analysis.
# (§1) Diluted AQ and DG fractions were filtered using the 0.2 µm nylon filters for DG fraction and injected for analysis by ultra-performance liquid chromatography-mass spectrometry (UPLC-MS) to obtain CBD concentration values. Percent (%) recovery values were calculated for CBD using the following equation:(1) % Recovery=Concentration in AQ/Concentration in DG×100
# (§2) CBD was quantified in pellet (P), digesta (DG) and aqueous (AQ) fractions by liquid chromatography—mass spectrometry. Digestive stability, the percentage recovery of CBD in DG fraction was calculated by dividing the moles of CBD quantified in DG by the moles of CBD quantified in raw material (RM) multiplied by 100. The micellarization efficiency is the percentage of CBD recovered in the AQ phase of digestion and was calculated by dividing the moles of CBD in AQ by the moles of CBD in DG multiplied by 100.
# [4] = set-up: method as in PMID 6262948; settings: Rhesus monkeys, on average; cited from earlier work
# [5] = MS/MS survey of metabolites in digestion phases; format: in vitro ADME; settings: DG, AQ and P phases, negative ion mode
# Method: To further confirm the presence of any metabolites in the DG, AQ, and P phases, an MS/MS survey was performed on negative ion mode with the inclusion list of all the masses for the expected metabolites (Table S2). The setting for TOF MSMS function was as follows: centroid data format, negative mode and polarity, mass rages from 100 to 1000, time 0 min to 25.0 min and scan time 2.1 s with inter scan time of 0.1 s. The instrument parameters were as follows: capillary 3000.0 V, sample cone 35.0 V, source temperature 100 °C and collision energy 5.0.
# [6] = Fed state three-phase in vitro digestion of CBD (olive oil and baby food); format: in vitro ADME; settings: for Digestive stability: CBD in DG / raw material x 100
# Method: For the fed in vitro digestion experiment, CBD was mixed with foods and oil. Briefly, 10 mg and 100 mg CBD were each first mixed with 0.5 g olive oil, and then added to 2 g baby food (Turkey and Gravy, Gerber, IL, USA). The oral phase samples were vortexed for 30 s followed by the gastric and intestinal phase protocols mentioned above. After the completion of the three-phase in vitro digestion procedure, 15 mL of the DG sample was collected, blanketed with nitrogen and kept at −80 °C for further analysis. The rest of the DG sample was centrifuged at 10,000× g for 1 h at 4 °C and the AQ fraction was collected, filtered, diluted in acetonitrile 1:2 (v/v) and blanketed with nitrogen and kept at −80 °C for the UPLC-MS analysis.
# as §1, §2
smiles,measurement,setting,value
"CCCCCc1cc(O)c2c(c1)OC(C)(C)[C@@H]1CCC(C)=C[C@@H]21 [THC, Δ9-tetrahydrocannabinol]",Recovery / bioavailable in the micellar fraction,[1],30%
same,Increase in bioavailability by co-administration of lipids,[2],3 fold
"CCCCCCCCCCCCCCCC(=O)Oc1ccc([N+](=O)[O-])cc1 [pNPP, p-nitrophenyl palmitate]",% mole conversion of pNPP to NP,"lipase; 0.1 mM pNPP, 1:2:3 lipase:pancreatin:bile",95.5 ± 7.6%
same,% mole conversion of pNPP to NP,"lipase; 0.1 mM pNPP, 1:2 lipase:pancreatin",93.6 ± 0.3%
same,% mole conversion of pNPP to NP,"lipase; 1 mM pNPP, 1:2:3 lipase:pancreatin:bile",58.6% and 58.6 ± 5.7%
same,% mole conversion of pNPP to NP,"lipase; 1 mM pNPP, 1:2 lipase:pancreatin",20.6% and 20.6 ± 0.07%
"C=C(C)[C@@H]1CCC(C)=C[C@H]1c1c(O)cc(CCCCC)cc1O [CBD, Cannabidiol]",Recovery / bioavailable in the micellar fraction,[1],30%
same,Micellarization efficiency,[3]; 10 mg CBD,0.65 ± 0.7%
same,Digestive stability,[3]; 10 mg CBD,72.99 ± 6%
same,"recovery at 3 h, 10 mg CBD per digestion (in 1 mL water + 1 mL oral fluid)","[3]; 10 mg CBD, read-out: % recovery in aqueous (AQ) micellar fraction",0.69 ± 1.5%
same,"recovery at 3 h, 10 mg CBD per digestion (in 1 mL water + 1 mL oral fluid)","[3]; 10 mg CBD, read-out: % recovery in digesta (DG)",73 ± 6%
same,"recovery at 3 h, 10 mg CBD per digestion (in 1 mL water + 1 mL oral fluid)","[3]; 10 mg CBD, read-out: % recovery in pellet (P)",92.2 ± 10%
same,Micellarization efficiency,[3]; 100 mg CBD,0.14 ± 0.1%
same,Digestive stability,[3]; 100 mg CBD,95.67 ± 2%
same,"recovery at 3 h, 100 mg CBD per digestion (in 1 mL water + 1 mL oral fluid)","[3]; 100 mg CBD, read-out: % recovery in aqueous (AQ) micellar fraction",0.15 ± 1%
same,"recovery at 3 h, 100 mg CBD per digestion (in 1 mL water + 1 mL oral fluid)","[3]; 100 mg CBD, read-out: % recovery in digesta (DG)",95.7 ± 2%
same,"recovery at 3 h, 100 mg CBD per digestion (in 1 mL water + 1 mL oral fluid)","[3]; 100 mg CBD, read-out: % recovery in pellet (P)",74.1 ± 1.3%
same,Increase in bioavailability by co-administration of lipids,[2],2.5 fold
same,Oral bioavailability,[4],16%
same,Metabolites of CBD in digestion phases (MS/MS survey),[5],No metabolites of CBD were observed
same,"Increase in CBD recovery in the micellar fraction, fed vs fasted state digestion",[6]; fed digestion compared to fasted state digestion,22 fold
same,Micellarization efficiency,"[6]; fed state digestion, 10 mg CBD, CBD in AQ / DG x 100",14.15 ± 0.6%
same,Digestive stability,"[6]; fed state digestion, 10 mg CBD",91.39 ± 25%
same,"recovery at 3 h, 10 mg CBD per digestion (in 0.5 g olive oil + 2 g baby food)","[6]; fed state digestion, 10 mg CBD, read-out: % recovery in aqueous (AQ) micellar fraction",12.9 ± 7%
same,"recovery at 3 h, 10 mg CBD per digestion (in 0.5 g olive oil + 2 g baby food)","[6]; fed state digestion, 10 mg CBD, read-out: % recovery in digesta (DG)",91.4 ± 25%
same,"recovery at 3 h, 10 mg CBD per digestion (in 0.5 g olive oil + 2 g baby food)","[6]; fed state digestion, 10 mg CBD, read-out: % recovery in pellet (P)",90.2 ± 18%
same,Digestive stability,"[6]; fed state digestion, 100 mg CBD",83.1 ± 25%
same,"recovery at 3 h, 100 mg CBD per digestion (in 0.5 g olive oil + 2 g baby food)","[6]; fed state digestion, 100 mg CBD, read-out: % recovery in aqueous (AQ) micellar fraction",18.6 ± 10%
same,"recovery at 3 h, 100 mg CBD per digestion (in 0.5 g olive oil + 2 g baby food)","[6]; fed state digestion, 100 mg CBD, read-out: % recovery in digesta (DG)",83.1 ± 25%
same,"recovery at 3 h, 100 mg CBD per digestion (in 0.5 g olive oil + 2 g baby food)","[6]; fed state digestion, 100 mg CBD, read-out: % recovery in pellet (P)",87.9 ± 29%
